Results as given in PubChem BioAssay AID1159557 (GlaxoSmithKline (GSK), 2015).
Activity calls are given as the source filed them. How the calls were made is not given here.

tested on: Trypanosoma brucei growth inhibition; assay: trypanosome proliferation inhibitors (AID 1159557);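 further: parasites exposed to compound for 48 h before the resazurin readout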

Row | Compound | IC50
1 | N#Cc1cccc(Nc2nccc(N3CCC(NS(=O)(=O)c4cccc(C#N)c4)CC3)n2)c1 | 6300 nM
2 | COc1ccnc2[nH]cc(-c3cc(C(=O)N[C@H](CO)c4ccccc4)co3)c12 | 5 nM
3 | C[C@@H](Oc1cc(-n2cnc3cc(N)ccc32)sc1C(N)=O)c1ccccc1Cl | 250 nM
4 | CC(C)Nc1nccc(-c2c(-c3ccc(F)cc3)ncn2C2CCOCC2)n1 | 5000 nM
5 | CCOc1ccc(NC(=O)C=Cc2ccc(CC)o2)cc1 | 16000 nM
6 | NC(=O)c1cc(F)ccc1Nc1nc(NC2CCC(O)CC2)ncc1Br (configuration not stated) | 79 nM
7 | O=c1ccc2ccc(F)c3c2n1C[C@H]3CN1CCN(CC(O)c2cc3c(cn2)OCS3)CC1 (some centres not stated) | 200 nM
8 | O=C(NCc1nnc2n1CCCCC2)c1ccc(-c2ccc(F)cc2)o1 | 130 nM
9 | O=C(NCC1CCCCC1)c1cnns1 | 1000 nM
10 | Cc1ncsc1CNc1cnc(-c2ccc3c(c2)OCCO3)c(-c2cnn(C)c2)c1 | 130 nM
11 | CC(C)(C)C(Cn1ccnc1)NC(=O)c1ccc2nc(C3CC3)oc2c1 (configuration not stated) | > 40000 nM (inactive)
12 | CS(=O)(=O)c1ccccc1C(=O)N(Cc1ccccc1)c1ccccc1 | 400 nM
13 | COc1ccc(S(=O)(=O)Nc2ccc(CN3CCN(C(=O)c4cccc(C#N)c4)CC3)cc2)cc1 | 400 nM
14 | N#Cc1cccc(CNc2ccc(-c3cnn(CC4CC4)c(=O)c3C#N)cc2)c1 | 10000 nM
15 | COc1cccc(-c2c(C)nn(-c3nc(N)nc(-c4ccccn4)n3)c2N)c1 | > 40000 nM (inactive)
16 | CCOc1ccc(OCC(=O)N2c3ccccc3CC2C(=O)NC)cc1 (configuration not stated) | 500 nM
17 | O=C(C1CCCCC1)N1CCN(c2nnc(-c3ccccc3)c3ccccc23)CC1 | 10000 nM
18 | COc1cc(OC)cc(C(=O)N[C@@H](CC(C)C)C(=O)NC2(C#N)CC2)c1 | 500 nM
19 | COc1ccc(CN(C)Cc2ccncc2)cc1-c1ccc(S(=O)(=O)NC2CCC2)s1 | > 40000 nM (inactive)
20 | c1ccc(Nc2nc3ccccc3[nH]2)nc1 | 16000 nM
21 | Cc1ccc(NC(C)C(=O)Nc2ccc(C#N)cc2)cc1S(=O)(=O)N1CCCCC1 (configuration not stated) | 7900 nM
22 | Cc1cccnc1NC(=O)c1cccc(OCc2c(C)noc2C)c1 | 400 nM
23 | COc1ccc(C)cc1-c1csc(NC(=O)C(C)n2ccnc2)n1 (configuration not stated) | 25000 nM

Row | Compound | IC50
24 | O=C(Nc1n[nH]c(-c2ccccn2)n1)C1CC1c1ccccc1 (configuration not stated) | > 13000 nM (inactive)
25 | COc1ccc(Nc2nc(NC3CCC(O)CC3)ncc2Br)c(C(N)=O)c1 (configuration not stated) | 100 nM
26 | O=C(Nc1nc(-c2ccccn2)cs1)N1C[C@H]2C[C@@]2(c2ccccc2)C1 | 500 nM
27 | CC(=O)Nc1ccc(-c2cnc(N)c(-c3nc4ccc(F)cc4[nH]3)c2)cc1 | 630 nM
28 | Cn1c(CC(=O)NNC(=O)c2ccc3ccccc3n2)nc2ccccc21 | 7900 nM
29 | O=C(NCCc1cccnc1)c1csc(-c2ccccc2)n1 | 25000 nM
30 | COc1ccc(-c2nc3ccncc3c(=O)n2CCOc2ccccc2)cc1 | 25000 nM
31 | Cc1[nH]n2c(=O)c3c(nc2c1-c1ccc(Br)cc1)CCCC3 | 400 nM
32 | CC(C)c1cc(C(=O)N2CCCC(c3cc4ncccc4[nH]3)C2)on1 (configuration not stated) | > 40000 nM (inactive)
33 | CN(C)S(=O)(=O)c1cccc(C(=O)Nc2nc(-c3ccccn3)cs2)c1 | 500 nM
34 | Cc1ccc(Nc2nc(N)nc(CNC(c3nc4ccccc4[nH]3)C(C)C)n2)cc1 (configuration not stated) | 7900 nM
35 | CN(C)c1ccc(-c2cc3nccnc3c(OC[C@H]3CCCNC3)n2)cn1 | 2000 nM
36 | COc1ccc([N+](=O)[O-])cc1NC(=O)Nc1cccc(Cl)c1 | 6300 nM
37 | COc1ccc2nccc(NC(=O)C3(OC)CCN(CC(O)c4ccc5c(c4)OCCO5)CC3)c2n1 (configuration not stated) | 400 nM
38 | CCc1cccc(CC)c1-n1c(SCC(=O)NC(=O)NCc2ccco2)nnc1-c1cccnc1 | 400 nM
39 | NC(=O)c1ncc(N[C@@H]2CCCNC2)nc1Nc1cccc(Cl)c1 | 130 nM
40 | O=C(NCCc1csc(-c2ccc(F)cc2)n1)c1cccs1 | 250 nM
41 | O=[N+]([O-])c1ccc(-c2nnn(-c3cccnc3)n2)o1 | 320 nM
42 | N#Cc1c(Oc2cccc(Cl)c2)cccc1[N+](=O)[O-] | 7.9 nM
43 | COc1ccc(NS(=O)(=O)c2cc(NC(=O)Cc3ccc(C)cc3)ccc2N2CCOCC2)cc1 | 5000 nM
44 | CC(C)c1sc(Cl)nc1C(=O)NCCc1nc(C(=O)Nc2ccc3c(c2)OCO3)cs1 | 25000 nM
45 | NCc1csc(Nc2cc(Oc3ccccc3)ncn2)n1 | 630 nM

Other lines, results leading:

Row | IC50 | Compound
46 | 250 nM | Cc1ccc(S(=O)(=O)Nc2ccc(CN3CCN(C(=O)c4cccc(C)c4)CC3)cc2)cc1
47 | 2000 nM | COc1ccc(-c2ccc3nnc(-c4ccc(O)c(OC)c4)n3c2)cn1
48 | 630 nM | COc1cc(-c2noc(CC#N)n2)ccc1OC(F)F
49 | 3200 nM | Cc1ccc(Nc2nc(-c3ccccn3)cc(N3CCCC(O)C3)n2)cc1 (configuration not stated)
50 | 2500 nM | O=C(Nc1cccc(Cl)c1)Nc1ccc([N+](=O)[O-])cc1Cl
51 | 20000 nM | CC(=O)Nc1ccc(-c2noc(CC3CCCN(Cc4cccc(F)c4C)C3)n2)cc1 (configuration not stated)
52 | 1300 nM | COc1ccc(CNc2cc(C3CC3)nc(-c3nccn3C)n2)cc1
53 | 400 nM | Cc1c(Nc2cc(C3CC3)[nH]n2)ccc(C#N)c1Cl
54 | 16000 nM | COc1ccc(C2CC(c3ccc(NS(C)(=O)=O)cc3)=NN2C(=O)c2cccs2)cc1OC (configuration not stated)
55 | > 40000 nM (inactive) | Cn1cncc1CN1CCC2(CC1)COC(Cc1ccccc1)C2 (configuration not stated)
56 | 20000 nM | O=C(CN(Cc1ccccn1)Cc1ccccn1)NCc1csc(-c2cccs2)n1
57 | 40000 nM | Cc1ccc2c(c1)-c1onc(C(=O)N3CCCCC3c3cccnc3)c1CO2 (configuration not stated)
58 | 3200 nM | O=C(Nc1nc(-c2ccccn2)cs1)C1CCc2ccccc2C1 (configuration not stated)
59 | 13000 nM | Cc1cc(C)n(-c2nc(NC(C)(C)C)nc(N3CCOCC3)n2)n1
60 | > 40000 nM (inactive) | CCN(C)Cc1ccc(N2CCC(NS(=O)(=O)c3ccc4c(c3)CCO4)CC2)nc1
61 | 5000 nM | O=C(CCCn1cnc([N+](=O)[O-])n1)Nc1cccc(Cl)c1

Row | IC50 | Compound
62 | 3200 nM | COc1ccc(S(=O)(=O)NCc2ccc(-c3ccc(CN(C)CCO)cc3)cc2)cc1
63 | > 40000 nM (inactive) | FC(F)(F)c1cc(C2CCCN(Cc3c[nH]c4ccccc34)C2)nc2ncnn12 (configuration not stated)
64 | 400 nM | O=C(CSc1nnc2ccc(-c3ccc(F)cc3)nn12)N1CCCCC1
65 | 250 nM | O=C(NC(CO)c1ccc(F)cc1)c1ccc(-c2c[nH]c3ncccc23)s1 (configuration not stated)
66 | 6300 nM | COc1ccc(C(=O)[C@H]2C[C@@H]2CN(Cc2ccccn2)Cc2ccccn2)cc1
67 | 160 nM | NC(=O)c1cc(F)ccc1Nc1nc(NC2CCC(O)CC2)ncc1Cl (configuration not stated)
68 | > 40000 nM (inactive) | CN(Cc1ccccc1)Cc1nnnn1C1CCN(Cc2ccc(-n3ccnc3)cc2)CC1
69 | 7900 nM | CN(C)CCN(C)Cc1ccc(Cl)cc1NS(=O)(=O)c1ccc(Cl)c(Cl)c1
70 | 63 nM | Cc1ccc(NC(=O)c2ccnc(N3CCCC3)c2)cc1-c1ccsc1C(N)=O
71 | 320 nM | COc1ccc2ncc(=O)n(CCN3CC[C@H](NCc4ncc(Cl)c5[nH]ncc45)[C@H](O)C3)c2n1
72 | 5000 nM | OCC1CCCCN1c1cc(-c2ccccn2)nc(Nc2ccccc2)n1 (configuration not stated)
73 | > 40000 nM (inactive) | Clc1ccc(C(CC2CCCCO2)Cn2cncn2)c(Cl)c1 (configuration not stated)
74 | > 40000 nM (inactive) | CCc1cccc(-n2nc(OCC(=O)NC3CCCC3)c3cccnc32)c1
75 | 13000 nM | O=C(CN(Cc1ccccn1)Cc1ccccn1)NCc1ccc(-c2csnn2)cc1
76 | > 50000 nM (inactive) | O=C1CN(C(=O)c2cccc(Nc3ncc(-c4ccc5c(c4)OCO5)cn3)c2)CCN1
77 | 400 nM | O=C(Nc1nc(-c2ccccn2)cs1)c1ccc(S(=O)(=O)N2CCCCC2)cc1
